Patent US12570665B2, “Compositions comprising fullerenyl mesochlorin nano-photosensitizers with covalently bound antibiotics and their uses in combination therapy” (priority 2019, dated 2026)

How the values were obtained:
[1] = tested on: MRSA (strain IQ0064); type: cell-based, Staphylococcus aureus
Experimental: (§1) FIG. 3. (A) aPDT against vancomycin-resistant and sensitive strains of E. fecium (VSE). Log10 survival fractions of E. fecium (10^8 cells/mL) incubated for 30 min with 50-nM concentration of VCM-mPheZn-N5^+ (LC39, see Huang, L., Wang, M., Chiang, L. Y., Hamblin, M. R., et al. Photochem. Photobiol. Sci. 2018, 17, 638-651) by irradiation with increasing exposes of a 415-nm LED light. […] Irradiation was carried out with (C) the radiant exposure of 115 J/cm^2 at 660 nm (LED light, 40 mW/cm^2) and (D) the radiant exposure of 20 J/cm^2 at 405 nm (LED light, 24 mW/cm^2). All data were represented as login survival fractions as a function of both aPDI agent concentration and light wavelength/exposure, where the dashed red line in Panel Cd represents the detection limit of MRSA CFU. […] (E) Concentration dependent aPDI of MRSA (strain IQ0064) by ChlPd-(C70>)N10^+ (LC41) upon illumination at 115 J/cm^2 and 660-nm wavelength (40 mW/cm^2).
(§2) Bacterial strains: Two Gram-positive MRSA strains (IQ0064 and IB0004) and one Gram-negative Acinetobacter baumannii strain (AF0004) were studied. All of them are clinical isolates. MRSA IQ0064 was a multidrug-resistant strain isolated from wounded military personnel deployed to Iraq. According to a microbiology test, IQ0064 strain was resistant to ampicillin, cefazolin, cefoxitin, oxacillin, and penicillin. MRSA IB0004 was an isolate from a keratitis patient. A. baumannii AF0004 was a multidrug-resistant strain isolated from wounded military personnel deployed to Afghanistan. AF0004 was resistant to a panel of important antibiotics including amikacin, ampicillin, aztreonam, cefazolin, cefepime, cefoxitin, ceftazidime, ceftriaxone, cefuroxime, ciprofloxacin, gentamicin, imipenem, levofloxacin, meropenem, nitrofurantoin, tetracycline and trimethoprim-sulfamethoxazole.
Light source: Light was delivered topically using a noncoherent light source (LumaCare, Newport Beach, CA) that provided the full spectrum of visible light (400 to 800 nm). The system employed interchangeable filter probes and produced a uniform spot for illumination. We used a 660±15-nm filter probe. The irradiance of 40 mW/cm^2 was used throughout the study. The light power was routinely measured using a laser power meter (Fieldmate; Coherent, Portland, OR).
Antimicrobial photodynamic inactivation (aPDI) of bacteria: Bacterial suspensions were adjusted to 10^8 CFU/mL, inoculated to 96-well plates (200 μL/well), incubated with fullerenes at 6.25, 12.50, 18.75, and 25.00 μM concentrations for 1.0 h and then either left in dark or irradiated with 660 nm light at 115 J/cm^2. At the completion of each stage of illumination, the contents of the wells were well mixed before sampling. Aliquots (30 μL) were taken from each well to determine CFU. The aliquots were serially diluted 10-fold in phosphate-buffered saline (PBS) to give dilutions of 10^1 to 10^5 times in addition to the original concentration; then, 10 μL aliquots of each of the dilutions were streaked horizontally on square BHI plates. Plates were streaked in triplicate and incubated for 24 h at 37° C. in the dark to allow colony formation. Control groups included bacterial cells that were treated with light alone (no fullerene monoadducts added), and cells treated with fullerene monoadducts (no light) as the dark control. Survival fractions were routinely expressed as ratios of CFU of bacterial cells treated with light and fullerene monoadducts, or treated with fullerenes in the absence of light, to CFU of bacteria treated with neither.

[2] = tested on: A. baumannii (AF0004); conditions: 12.5 μM
Text: as §2, with “AF0004 was resistant to a panel of important antibiotics including amikacin, ampicillin, aztreonam, cefazolin, cefepime, cefoxitin, ceftazidime, ceftriaxone, cefuroxime, ciprofloxacin, gentamicin, imipenem, levofloxacin, meropenem, nitrofurantoin, tetracycline and trimethoprim-sulfamethoxazole.” left out
Light source: Light was delivered topically using a noncoherent light source (LumaCare, Newport Beach, CA) that provided the full spectrum of visible light (400 to 800 nm). […] The light power was routinely measured using a laser power meter (Fieldmate; Coherent, Portland, OR).
Antimicrobial photodynamic inactivation (aPDI) of bacteria: Bacterial suspensions were adjusted to 10^8 CFU/mL, inoculated to 96-well plates (200 μL/well), incubated with fullerenes at 6.25, 12.50, 18.75, and 25.00 μM concentrations for 1.0 h and then either left in dark or irradiated with 660 nm light at 115 J/cm^2. […] Survival fractions were routinely expressed as ratios of CFU of bacterial cells treated with light and fullerene monoadducts, or treated with fullerenes in the absence of light, to CFU of bacteria treated with neither.

[3] = tested on: MRSA; conditions: against MRSA
[4] = tested on: MRSA cells; test: Binding to MRSA cells by confocal microscopy fluorescence imaging; type: cell-based, Staphylococcus aureus; conditions: 405-nm irradiation, red emission 640-780 nm
[5] = tested on: E. fecium; conditions: 50 nM, 415 nm irradiation, VCM-resistant and sensitive strains
Experimental: as §1

## CN[C@H](CC(C)C)C(=O)N[C@H]1C(=O)N[C@@H](CC(N)=O)C(=O)N[C@H]2C(=O)N[C@H]3C(=O)N[C@H](C(=O)N[C@H](C(=O)O)c4cc(O)cc(O)c4-c4cc3ccc4O)[C@H](O)c3ccc(c(Cl)c3)Oc3cc2cc(c3O[C@@H]2O[C@H](CO)[C@@H](O)[C@H](O)[C@H]2O[C@H]2C[C@](C)(N)[C@H](O)[C@H](C)O2)Oc2ccc(cc2Cl)[C@H]1O [vancomycin, reference compound]
[1]; equivalent dose, control, 660 nm and 405 nm (FIGS. 3Ca, 3Da)
  effect on viability of MRSA cells: negligible effect

## 3a-hydroxy-3b-aminoethylene-aminoPEGlycolated vancomycin-15b-methyl-13a,17c-di[N,N′,N,N,N,N-hexapropyl-panta(aminoethylene)]amide-mesochlorin [LC40e]
[2]; no light
  dark toxicity to A. baumannii cells: about 1.5 log10 CFU
[2]; red light 660 nm, 115 J/cm^2
  CFU reduction (inactivation of A. baumannii CFUs): > 6 log10 CFU
[3]
  MIC: 2.0 µg/mL
[1]; 10-20 μM, 405-nm irradiation, 20 J/cm^2
  photokilling efficacy on MRSA: 5.0 log10
[1]; 10-20 μM, 660-nm light, 115 J/cm^2
  CFU reduction (photokilling of MRSA): > 6.5 log10 CFU
[1]; 405- and 660-nm photoexcitation, up to 20 μM
  light mediated killing of MRSA cells (qualitative): susceptible to light mediated killing
[1]; combination versus antibiotic activity alone
  additional increase in the inactivation of bacteria by the combination of antibiotics and aPDT: 3 log10 CFU
[1]; without red-light irradiation, bacterium not given, MRSA implied
  antibiotic activity, CFU killing without red-light irradiation: 4 log10 CFU
[4]
  red FL emission on pretreated MRSA cells (relative cell affinity): significantly enhanced

## 3a-hydroxy-3b-vancomycin-15b-methyl-17c-[N,N′,N,N,N,N-hexapropyl-penta(aminoethylene)]amide-[Zn^+2]mesopheophorbide [LC39]
[5]
  aPDT effect: excellent aPDT effect
